Data on four molecules can be found in paper PMC4810358, “Applicability of the Rayleigh equation for enantioselective metabolism of chiral xenobiotics by microsomes, hepatocytes and in-vivo retention in rabbit tissues” (Scientific Reports, 2016).

A short description of data set [1]: enantioselective degradation of paclobutrazol in rat liver microsomes (Wu et al.). The format is in vitro ADME. Particulars: reconstructed from data of Fig. 3A in ref 19; R^2 0.97. As to the method: (§1) In addition to the microsome studies, the Rayleigh equation was fitted to reported studies on biodegradation of chiral compounds using liver microsomes and hepatocytes for which there was sufficient data available. We focused on studies published on years 2011–2015 that reported on first order kinetics and/or provided concentration - time profiles of the individual enantiomers after incubation of the racemate with the metabolizer, i.e. systems analyzed by approach II in the introduction.
In general terms: Liver microsomes are a subcellular fraction often used to study metabolism.

The nature of data set [2]: in vivo stereoselective metabolism of doxazosin, plasma concentration-time profiles (Kong et al.). Particulars: male Sprague–Dawley rats, from Fig. 3 in ref 25, R^2 = 0.92. The source says: For example, Sun et al.[26] have reviewed the enantioselective behavior of the fungicide myclobutanil enantiomers in variant rabbit tissues following intravenous administration of the racemic fungicide. Using the plasma concentration-time curves of the two enantiomers (presented in Fig. 1A in ref. [26]) we obtained the enantiomeric enrichment factor of −28 ± 5 (R^2 = 0.97). Analysis of the distribution of myclobutanil in various tissues, presented in Fig. 3 in ref. [26], obtained the enantiomeric enrichment factors of −33 ± 16 (R^2 = 0.92) for the liver, −20 ± 6 (R^2 = 0.97) for the brain, −32 ± 16 (R^2 = 0.89) for the kidney and −21 ± 6 (R^2 = 0.97) for the muscle. […] This quantitative ranking is obscured by the large number of time trace data points in the original presentation. Another example can be presented by the study of Kong et al.[25] reporting on the stereoselective metabolism of the alpha blocker doxazosin (DOX) in vivo in male Sprague–Dawley rats.

Data set [3] in a line: enantioselective metabolism of diclofop-methyl in fish liver microsomes (Ma et al.). The format is in vitro ADME, loach (Misgurnus anguillicaudatus). The settings on record: reconstructed from data of Fig. 3A in ref 50; R^2 = 0.94. As to the method:
as §1

The nature of data set [4]: metabolism of hexaconazole in male Sprague–Dawley rat liver microsomes (Shen et al.). The settings on record: reconstructed from data of Fig. 3A in ref 20; R^2 = 0.99. The format is in vitro ADME. As to the method:
as §1

The nature of data set [5]: enantioselective metabolism in rat hepatocytes (reported studies). The data set is classed as in vitro ADME. The settings on record: hexaconazole, reconstructed from Fig. 3a in ref 24; R^2 = 0.99. As to the method: as §1
Wang et al.[24] studied the enantioselective metabolism of the fungicide hexaconazole as well, they used male Sprague–Dawley rat hepatocytes. […] In a second test case, Wang et al.[52] studied the degradation of the fungicide myclobutanil in hepatocytes from male Sprague–Dawley rats.

Turning to `CC(C)(C)[C@@H](O)[C@@H](Cc1ccc(Cl)cc1)n1cncn1` (racemic) [(2RS, 3RS)-paclobutrazol], the enantiomeric enrichment factor in data set [1] is −66 ± 14%.
As to `COc1cc2nc(N3CCN(C(=O)C4COc5ccccc5O4)CC3)nc(N)c2cc1OC` (centres unmarked) [DOX, doxazosin], in data set [2], the enantiomeric enrichment factor is given as −45 ± 13.
`COC(=O)C(C)Oc1ccc(Oc2ccc(Cl)cc2Cl)cc1` (centres unmarked) [diclofop-methyl]: the enantiomeric enrichment factor in data set [3] is recorded as −142 ± 40%.
For `CCCCC(O)(Cn1cncn1)c1ccc(Cl)cc1Cl` (centres unmarked) [hexaconazole], the values for the enantiomeric enrichment factor in data set [4] and in data set [5] were −37 ± 2% and −184 ± 6%, respectively.
